From US20230271933A1, “HETEROCYCLIC IMMUNOMODULATOR” (Beijing Innocare Pharma Tech Co., Ltd., priority 2020, published 2023)

Biological target: hERG potassium ion channel (Homo sapiens, UniProt Q12809)
Test: Blockade of the hERG potassium ion channel (whole cell patch clamp)
Type: cell-based
Settings: HEK293 cells stably overexpressing hERG, pH 7.4, tail current, read-out: The percentage of the inhibition to the hERG current at the solubility of 3 μM (n = 2)
Procedure: The effect of the compound of the present invention on possible arrhythmias was assessed by determining the blockade of the hERG potassium ion channel.
The experiment method was summarized as follows: • Extracellular fluid: 140 mM NaCl, 3.5 mM KCl, 1 mM MgCl2, 2 mM CaCl2, 10 mM D-glucose, 10 mM HEPES, 1.25 mM NaH2PO4, pH=7.4. • Electrode internal solution: 20 mM KCl, 115 mM K-aspartate, 1 mM MgCl2, 5 mM EGTA, 10 mM HEPES, 2 mM Na2-ATP, pH=7.2. • Compound solution: the compound to be tested was dissolved in DMSO and prepared into a stock solution having a concentration of 10 mM, then diluted into the concentration of 3 mM with DMSO, and then diluted into a solution having a concentration of 3 μM with the extracellular solution for subsequent use. • Cell culture: the HEK293 cell line with the stable hERG potassium channel overexpression (Creacell, Cat. No. A-0320) was cultured in a DMEM medium (Gibco, Cat. No. 11995-065) containing […] (Gibco, Cat. No. 1428478) and 0.8 mg/mL G418 (Amresco, Cat. No. E859-5G) at the culture temperature of 37° C. under the carbon dioxide concentration of […]. The spent medium was removed and the cells were washed once with PBS (Gibco, Cat. No. 1009-141). Then 1 mL TrypLE™ Express solution (Gibco, Cat. No. 12604021) was added and the cells were incubated at 37° C. […]. When the cells were detached from the bottom of the dish, 5 mL of complete medium preheated at 37° C. was added. The cell suspension was transferred to a sterile centrifuge tube and centrifuged at 1000 rpm for 5 minutes before cell collection. Cells were inoculated in 6 cm cell culture dishes at the cell inoculation volume of 2.5*10^5 per dish (final volume: 5 mL). Before the patch clamp detection experiment, 3*10^3 cells were plated on the cover slips, cultured in 24-well plates (final volume: 500 μL), and detected 18 hours later. • Voltage stimulation protocol by recording the whole-cell hERG potassium current with the whole cell patch clamp: after forming a whole-cell seal, the cell membrane voltage was clamped at −80 mV. The clamping voltage was depolarized from −80 mV to −50 mV and maintained for 0.5 seconds (as leakage current detection), then stepped to 30 mV and maintained for 2.5 seconds, then quickly returned to −50 mV and maintained for 4 seconds to excite the hERG channel tail current (Peak tail current), the hERG potassium current was recorded every other 10 seconds. Experiment data were collected with EPC-10 amplifier (HEKA) and stored in PatchMaster (HEKA v2x73) software. • Determination: A capillary glass tube (Sutter Instruments) was drawn into a recording electrode with a microelectrode drawing instrument (Sutter Instruments). The cell-loaded cover slip was removed from the 24-well plate placed in the incubator and then placed under an inverted microscope. […] In the whole-cell recording mode, the slow capacitance compensation was performed and the membrane capacitance and the series resistance were recorded, during which the leakage compensation was not applied. After the hERG tail current recorded with the whole cell was stabilized for 3-5 minutes, 8 mL of the compound-free extracellular fluid (blank control) and 8 mL of 3 μM solution of the compound to be tested were sequentially flowed through the recording bath with the gravity perfusion to act on the cells for 5 minutes (or to the current stabilization). The current detected for each cell in the compound-free extracellular fluid was served as its own control. […]

Sequence of hERG potassium ion channel (Q12809 whole entry): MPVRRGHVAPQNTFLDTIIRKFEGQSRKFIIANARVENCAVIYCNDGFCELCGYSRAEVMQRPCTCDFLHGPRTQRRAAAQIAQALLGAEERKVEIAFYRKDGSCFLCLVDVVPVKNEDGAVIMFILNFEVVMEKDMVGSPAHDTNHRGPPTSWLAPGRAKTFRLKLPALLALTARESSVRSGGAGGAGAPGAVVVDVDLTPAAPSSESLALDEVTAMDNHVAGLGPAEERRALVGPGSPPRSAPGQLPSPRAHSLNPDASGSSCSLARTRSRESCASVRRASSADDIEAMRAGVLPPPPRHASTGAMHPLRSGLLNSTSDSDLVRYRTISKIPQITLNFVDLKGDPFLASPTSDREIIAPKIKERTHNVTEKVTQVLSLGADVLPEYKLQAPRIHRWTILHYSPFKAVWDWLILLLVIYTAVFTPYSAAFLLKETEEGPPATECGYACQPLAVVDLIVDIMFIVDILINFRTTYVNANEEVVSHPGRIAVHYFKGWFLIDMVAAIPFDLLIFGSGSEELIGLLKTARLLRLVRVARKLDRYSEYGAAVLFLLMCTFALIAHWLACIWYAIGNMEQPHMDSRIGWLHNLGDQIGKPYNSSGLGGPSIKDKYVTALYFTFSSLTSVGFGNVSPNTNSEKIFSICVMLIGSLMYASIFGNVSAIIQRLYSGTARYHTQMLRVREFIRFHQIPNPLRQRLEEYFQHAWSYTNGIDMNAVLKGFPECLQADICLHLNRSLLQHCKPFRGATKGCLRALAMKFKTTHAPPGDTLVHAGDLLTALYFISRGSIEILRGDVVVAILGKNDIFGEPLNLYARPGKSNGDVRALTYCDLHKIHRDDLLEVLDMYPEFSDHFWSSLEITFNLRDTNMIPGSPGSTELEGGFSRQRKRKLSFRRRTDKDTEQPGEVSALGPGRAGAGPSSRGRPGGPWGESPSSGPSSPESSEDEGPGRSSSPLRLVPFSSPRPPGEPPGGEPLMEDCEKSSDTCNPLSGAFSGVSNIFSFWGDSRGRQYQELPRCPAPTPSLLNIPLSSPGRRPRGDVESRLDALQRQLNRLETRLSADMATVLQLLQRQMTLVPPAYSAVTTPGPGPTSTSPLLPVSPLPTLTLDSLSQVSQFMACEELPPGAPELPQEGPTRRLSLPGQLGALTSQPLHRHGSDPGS

## N#Cc1ccc(N2CCN(Cc3ccc(COc4cccc5c4CN([C@H]4CCC(=O)NC4=O)C5=O)cc3)CC2)c(F)c1 [CC-92480, reference compound]
  inhibition at 5 min, 3 µM: 76%
